# Test results: ChEMBL document CHEMBL4130627, “Prodrugs of the Phosphoribosylated Forms of Hydroxypyrazinecarboxamide Pseudobase T-705 and Its De-Fluoro Analogue T-1105 as Potent Influenza Virus Inhibitors” (J Med Chem, 2018)
# Activity calls are given as the source filed them. The rule behind the calls is not given here.
# Experiments:
# [1] = Drug metabolism in MDCK cells assessed as T-1105-RDP formation at 465 uM during 15 hrs by RP-HPLC-UV analysis; type: ADME, cell-based, Canis lupus familiaris; conditions: dog
# [2] = molecular target: Membrane-associated guanylate kinase, WW and PDZ domain-containing protein 1 (Homo sapiens) (UniProt Q96QZ7); assay: Inhibition of human recombinant guanylate kinase 1 mediated […] conversion at 25 to 400 uM preincubated for 10 mins followed by enzyme addition measured up to 60 mins by UV absorbance method
# Sequence of Membrane-associated guanylate kinase, WW and PDZ domain-containing protein 1 (Homo sapiens) (Q96QZ7 whole entry, the tested form may be a part): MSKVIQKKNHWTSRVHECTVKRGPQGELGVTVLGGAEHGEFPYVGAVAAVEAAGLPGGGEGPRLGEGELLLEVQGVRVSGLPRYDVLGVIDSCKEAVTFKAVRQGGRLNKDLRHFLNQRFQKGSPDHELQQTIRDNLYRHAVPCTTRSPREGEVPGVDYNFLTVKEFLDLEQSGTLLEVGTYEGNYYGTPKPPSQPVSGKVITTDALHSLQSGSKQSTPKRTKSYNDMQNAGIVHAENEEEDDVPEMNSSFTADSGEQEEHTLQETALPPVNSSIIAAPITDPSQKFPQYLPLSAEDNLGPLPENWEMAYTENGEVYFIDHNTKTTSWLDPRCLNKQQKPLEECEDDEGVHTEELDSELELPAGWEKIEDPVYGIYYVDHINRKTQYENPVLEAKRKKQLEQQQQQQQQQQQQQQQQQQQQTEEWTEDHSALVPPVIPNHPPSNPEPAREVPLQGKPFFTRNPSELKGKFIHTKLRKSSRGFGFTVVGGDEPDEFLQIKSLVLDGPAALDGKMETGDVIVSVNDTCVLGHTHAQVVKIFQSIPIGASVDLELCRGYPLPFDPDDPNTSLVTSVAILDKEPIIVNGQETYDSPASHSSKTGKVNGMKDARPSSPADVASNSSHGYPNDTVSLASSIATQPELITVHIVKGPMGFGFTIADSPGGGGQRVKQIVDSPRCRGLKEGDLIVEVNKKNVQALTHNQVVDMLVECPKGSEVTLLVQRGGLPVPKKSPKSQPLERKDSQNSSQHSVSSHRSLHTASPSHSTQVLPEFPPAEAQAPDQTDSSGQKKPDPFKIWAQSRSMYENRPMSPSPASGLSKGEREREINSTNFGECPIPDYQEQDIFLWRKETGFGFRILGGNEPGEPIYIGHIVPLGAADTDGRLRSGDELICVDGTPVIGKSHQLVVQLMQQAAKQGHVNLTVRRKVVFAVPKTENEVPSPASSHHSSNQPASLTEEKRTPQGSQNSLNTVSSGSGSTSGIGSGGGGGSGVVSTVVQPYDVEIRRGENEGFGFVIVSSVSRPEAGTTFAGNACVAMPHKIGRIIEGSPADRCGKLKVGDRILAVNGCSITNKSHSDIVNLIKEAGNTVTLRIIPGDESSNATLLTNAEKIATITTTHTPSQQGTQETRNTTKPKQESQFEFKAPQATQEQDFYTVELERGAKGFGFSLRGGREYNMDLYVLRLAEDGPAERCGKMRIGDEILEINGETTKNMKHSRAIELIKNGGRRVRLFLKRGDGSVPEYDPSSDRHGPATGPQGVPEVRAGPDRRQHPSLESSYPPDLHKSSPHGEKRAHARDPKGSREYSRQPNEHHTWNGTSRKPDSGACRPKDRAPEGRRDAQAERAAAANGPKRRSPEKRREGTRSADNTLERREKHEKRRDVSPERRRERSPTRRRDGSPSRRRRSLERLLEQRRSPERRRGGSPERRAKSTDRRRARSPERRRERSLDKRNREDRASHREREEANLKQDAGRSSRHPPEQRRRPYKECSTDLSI
# [3] = Drug metabolism in MDCK cells assessed as T-1105-RTP formation at 465 uM during 15 hrs by RP-HPLC-UV analysis; type: ADME, cell-based, Canis lupus familiaris; conditions: dog
# Influenza B virus [4] = assay: microbe, parasite or virus in culture; conditions: Ned/537/05, MDCK, 72 h
# Description: Antiviral activity against Influenza virus B/Ned/537/05 infected in MDCK cells assessed as reduction in viral replication at 3 days post infection by formazan-based MTS assay
# [5] = Cytotoxicity against HGPRT deficient 6-thioguanine-resistant MDCK cells assessed as change in cell morphology after 3 days by microscopic analysis; type: cell-based, Canis lupus familiaris; conditions: dog
# [6] = Cytotoxicity against MDCK cells assessed as reduction in cell viability after 3 days by formazan-based MTS assay; design: species or system Canis lupus familiaris; conditions: dog
# Influenza B virus [7] = assay: microbe, parasite or virus in culture; conditions: Ned/537/05, MDCK, 72 h; remark: listed apart in the source
# Description: Antiviral activity against Influenza virus B/Ned/537/05 infected in MDCK cells assessed as reduction in viral replication at 3 days post infection by microscopic analysis
# Influenza A virus [8] = assay: microbe, parasite or virus in culture; conditions: MDCK, 72 h
# Description: Antiviral activity against Influenza virus A/X-31 infected in MDCK cells assessed as reduction in viral replication at 3 days post infection by microscopic analysis
# [9] = Cytotoxicity against MDCK cells assessed as change in cell morphology after 3 days by microscopic analysis; type: cell-based, Canis lupus familiaris; conditions: dog
# Influenza A virus [10] = assay: microbe, parasite or virus in culture; conditions: MDCK, 72 h; remark: listed apart in the source
# Description: Antiviral activity against Influenza virus A/X-31 infected in MDCK cells assessed as reduction in viral replication at 3 days post infection by formazan-based MTS assay
# MDCK [11] = assay: Prodrug activation in HGPRT deficient 6-thioguanine-resistant MDCK cells by RP-HPLC-UV analysis; type: cell-based, Canis lupus familiaris; conditions: dog
# MDCK [12] = assay: Prodrug activation in MDCK cells by RP-HPLC-UV analysis; type: cell-based, Canis lupus familiaris; conditions: dog
# MDCK [13] = assay: Cytotoxicity against MDCK cells assessed as reduction in cell viability at 37 uM after 3 days by formazan-based MTS assay; design: species or system Canis lupus familiaris; conditions: dog, 72 h
# [14] = Drug metabolism in MDCK cells assessed as T-1105-RTP formation at 465 uM in presence of GTP by RP-HPLC-UV analysis; type: ADME, cell-based, Canis lupus familiaris; conditions: dog
# MDCK [15] = assay: Prodrug activation in MDCK cells assessed as T-1105-RMP formation at 465 uM after 1 to 840 mins by RP-HPLC-UV analysis; type: cell-based, Canis lupus familiaris; conditions: dog
# [16] = molecular target: Membrane-associated guanylate kinase, WW and PDZ domain-containing protein 1 (Homo sapiens) (UniProt Q96QZ7); assay: Inhibition of human recombinant guanylate kinase 1 mediated […] conversion at 400 uM preincubated for 10 mins followed by enzyme addition measured up to 60 mins by UV absorbance method relative to control
# [17] = Drug metabolism in MDCK cells assessed as T-1105-RTP formation at 465 uM after 2 hrs in presence of 5mM ATP by RP-HPLC-UV analysis; type: ADME, cell-based, Canis lupus familiaris; conditions: dog
# MDCK [18] = assay: Prodrug activation in HGPRT deficient MDCK cells assessed as T-1105-RMP formation at 465 uM after 1 to 840 mins by RP-HPLC-UV analysis; type: cell-based, Canis lupus familiaris; conditions: dog
# [19] = molecular target: Membrane-associated guanylate kinase, WW and PDZ domain-containing protein 1 (Homo sapiens) (UniProt Q96QZ7); assay: Inhibition of human recombinant guanylate kinase 1 mediated […] conversion at 200 uM preincubated for 10 mins followed by enzyme addition measured up to 60 mins by UV absorbance method relative to control
# [20] = molecular target: Membrane-associated guanylate kinase, WW and PDZ domain-containing protein 1 (Homo sapiens) (UniProt Q96QZ7); assay: Inhibition of human recombinant guanylate kinase 1 mediated […] conversion at 100 uM preincubated for 10 mins followed by enzyme addition measured up to 60 mins by UV absorbance method relative to control
smiles,measurement,setting,value
NC(=O)c1nccn([C@@H]2O[C@H](COP(=O)(O)O)[C@@H](O)[C@H]2O)c1=O,Drug metabolism,[1],Metabolite_Notdetected
same,inhibition,[2],inactive
same,Drug metabolism,[3],Metabolite_Notdetected
NC(=O)c1nc(Br)cnc1O,EC50,Influenza B virus [4],> 250 µM
same,MCC at 72 h,[5],> 250 µM
same,CC50 at 72 h,[6],> 250 µM
same,EC50,Influenza B virus [7],> 250 µM
same,EC50,Influenza A virus [8],> 250 µM
same,MCC at 72 h,[9],> 250 µM
same,EC50,Influenza A virus [10],> 250 µM
same,Drug metabolism,MDCK [11],Metabolite_Notdetected
same,Drug metabolism,MDCK [12],Metabolite_Notdetected
NC(=O)c1nccn([C@@H]2O[C@H](COP(=O)(O)OP(=O)(O)O)[C@@H](O)[C@H]2O)c1=O,Activity,MDCK [13],Non-Toxic
same,Drug metabolism,[14],Metabolite_Detected
same,Drug metabolism,MDCK [15],Metabolite_Detected
same,inhibition,[16],82%
same,Drug metabolism,[17],Metabolite_Detected
same,Drug metabolism,MDCK [18],Metabolite_Detected
same,inhibition,[19],62%
same,inhibition,[20],37%
